Measured values taken from patent publication US20060089395A1, “Nf-kb activation inhibitors” (priority 2002, published 2006).
“Also recorded” adds a separate entry of the source. Read-outs that look alike come from different tables or passages of the source.

Columns and labels:
Type in all cases: cell-based, human
IL-8 = assay: Inhibition of IL-8 production by TNFα stimulation in synovial fibroblasts derived from a rheumatoid patient (ELISA); conditions: for IC50: synovial fibroblasts, read-out: Inhibition against Mediator Release IC50(nM) IL-8; for inhibition at 1 µM: 1000 nM, in parentheses, read-out: Inhibitory ratios (%) at 1000 nM, IL-8
Description: (§1) Synovial fibroblasts (Human Synoviocyte (RA-Positive), Toyobo, T4040-05) were cultured for 3 days in a medium containing 10 ng/ml of TNFα and a test compound. IL-6 and IL-8 in the supernatant were measured by the ELISA method, and PGE2 (prostaglandin E2) was measured by the EIA method.

NF-κ B = assay: Inhibitory activity of NF-κ B activation, luciferase reporter assay in HepG2 under TNF-α stimulation; conditions: HepG2, TNF-α (40 ng/ml), 4 hours; for inhibition at 1 µg/mL / inhibition at 10 µg/mL: Homo sapiens; for inhibition at 1 µg/mL / Inhibitory Ratio of NF-κ B Activation(%) Drug Concentration 1 μg/mL: 1 μg/mL; for inhibition at 1 µg/mL: read-out: Inhibitory Ratio of NF-κ B Activation(%) Drug Concentration 1 μg/mL; for inhibition at 10 µg/mL / Inhibitory Ratio of NF-κ B Activation(%) Drug Concentration 10 μg/mL: 10 μg/mL; for inhibition at 10 µg/mL: read-out: Inhibitory Ratio of NF-κ B Activation(%) Drug Concentration 10 μg/mL
In short: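 Readout is firefly luciferase luminescence, expressed as inhibition versus compound-free wells. Before this, HepG2 cells carrying a transiently transfected 5×NF-κB-site luciferase plasmid (6–24 h post-transfection) received test compound plus TNF-α (40 ng/ml) for 4 h.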

IL-6 = assay: Inhibition of IL-6 production by TNFα stimulation in synovial fibroblasts derived from a rheumatoid patient (ELISA); conditions: for IC50: synovial fibroblasts, read-out: Inhibition against Mediator Release IC50(nM) IL-6; for Inhibitory ratios (%) at 1000 nM, IL-6: in parentheses
Description: as §1

PGE2 = assay: Inhibition of PGE2 production by TNFα stimulation in synovial fibroblasts derived from a rheumatoid patient (EIA); conditions: for IC50: synovial fibroblasts, read-out: Inhibition against Mediator Release IC50(nM) PGE2; for Inhibitory ratios (%) at 1000 nM, PGE2: in parentheses
Description: as §1

[1] = Homo sapiens, Fibroblast, 72 h, 10 ng/ml TNFα, 3 days
[2] = rheumatic patient-derived synovial fibroblasts under TNFα stimulation
[3] = Homo sapiens, Fibroblast, comparison compounds, TNFα stimulation

Compound	Inhibitory Ratio of NF-κ B Activation(%) Drug Concentration 1 μg/mL (NF-κ B) [%]	Inhibitory Ratio of NF-κ B Activation(%) Drug Concentration 10 μg/mL (NF-κ B) [%]	IC50 (IL-6; 10 ng/ml TNFα, 3 days) [nM]	IC50 (PGE2; 10 ng/ml TNFα, 3 days) [nM]	IC50 (PGE2; [3]) [nM]	inhibition at 1 µM (IL-8; Homo sapiens, Fibroblast, 72 h) [%]	IC50 (IL-8; [3]) [nM]	IC50 (IL-6; [3]) [nM]	further results
O=C(Nc1cc(C(F)(F)F)cc(C(F)(F)F)c1)c1cc(C#Cc2ccccc2)ccc1O [Compound No. 22, N-[3,5-bis(trifluoromethyl)phenyl]-2-hydroxy-5-(phenylethynyl)-benzamide]									IC50 (IL-8; [1]): 869 nM; inhibition at 1 µg/mL (NF-κ B): 83.9%; inhibition at 10 µg/mL (NF-κ B): 97.1%; IC50 (IL-6; [1]): 665 nM
O=C(Nc1cc(C(F)(F)F)cc(C(F)(F)F)c1)c1cc(CCc2ccccc2)ccc1O [Compound No. 24]	92.3	98.3	593						
O=C(Nc1cc(C(F)(F)F)cc(C(F)(F)F)c1)c1cc(C(F)(F)F)ccc1O [Compound No. 25]	96.4	99.6	452						
O=C(Nc1cc(C(F)(F)F)cc(C(F)(F)F)c1)c1cc(-n2cccc2)ccc1O [Compound No. 27]	93.8	97.9	355	532					IC50 (IL-8; 10 ng/ml TNFα, 3 days): 527 nM
O=C(Nc1cc(C(F)(F)F)cc(C(F)(F)F)c1)c1c(O)cccc1F [Compound No. 63]	85.4	85.0	513	439					IC50 (IL-8; 10 ng/ml TNFα, 3 days): 786 nM
O=C(Nc1cc(C(F)(F)F)cc(C(F)(F)F)c1)c1c(O)ccc2ccccc12 [Compound No. 73]	93.1	97.9	337	662					IC50 (IL-8; 10 ng/ml TNFα, 3 days): 670 nM
O=C(Nc1cc(Br)cc(C(F)(F)F)c1)c1cc(Br)ccc1O [Compound No. 86]	96.7	98.7	565	562					
COc1ccc(C(F)(F)F)cc1NC(=O)c1cc(Br)ccc1O [Compound No. 94]	76.6	93.4		266					
O=C(Nc1cc(Cl)cc(Cl)c1)c1cc(Cl)ccc1O [Compound No. 125]	84.5	96.8	903	966					
COc1ccc(C(C)(C)C)cc1NC(=O)c1cc(Cl)ccc1O [Compound No. 135, 5-chloro-N-{5-[(1,1-dimethyl)ethyl]-2-methoxyphenyl}-2-hydroxybenzamide]									IC50 (PGE2; [1]): 41 nM; inhibition of the production of PGE2 (in words) (PGE2; [2]): potently inhibited; also recorded: strongly inhibited; inhibition of the production of IL-8 (in words) (IL-8; [2]): potently inhibited; also recorded: strongly inhibited; inhibition at 1 µg/mL (NF-κ B): 86.2%; inhibition at 10 µg/mL (NF-κ B): 99.2%; IC50 (IL-6; [1]): 61 nM; inhibition of the production of IL-6 (in words) (IL-6; [2]): potently inhibited; also recorded: strongly inhibited
O=C(Nc1nc(C(F)(F)F)c(Br)s1)c1cc(Br)ccc1O [Compound No. 187]	85.3	94.4	649	414					
O=C(Nc1ccc(C(F)(F)F)cc1C(F)(F)F)c1cc(Cl)ccc1O [Reference Example 1, N-[2,4-bis(trifluoromethyl)phenyl]-5-chloro-2-hydroxybenzamide, reference compound]					> 1000	-70	> 1000	202	Inhibitory ratios (%) at 1000 nM, PGE2 (PGE2): 1.2%
O=C(Nc1ccccc1C(F)(F)F)c1cc(Cl)ccc1O [Reference Example 2, N-[2-(trifluoromethyl)phenyl]-5-chloro-2-hydroxybenzamide, reference compound]					676	14	> 1000	887	
O=C(Nc1ccc(Cl)cc1C(F)(F)F)c1cc(Cl)ccc1O [Reference Example 3, N-[4-chloro-2-(trifluoromethyl)phenyl]-5-chloro-2-hydroxybenzamide, reference compound]					> 1000	-43	> 1000	> 1000	Inhibitory ratios (%) at 1000 nM, PGE2 (PGE2): 20%; Inhibitory ratios (%) at 1000 nM, IL-6 (IL-6): −17%
O=C(Nc1cccc(C(F)(F)F)c1)c1cc(Br)ccc1O [Reference Example 4, N-[3-(trifluoromethyl)phenyl]-5-bromo-2-hydroxybenzamide, reference compound]					413	16	> 1000	690	
O=C(Nc1ccc(Cl)c(C(F)(F)F)c1)c1cc(Br)ccc1O [Reference Example 5, N-[4-chloro-3-(trifluoromethyl)phenyl]-5-bromo-2-hydroxybenzamide, reference compound]					57	16	> 1000	91	
O=C(Nc1ccc(C(F)(F)F)cc1)c1cc(Cl)ccc1O [Reference Example 6, N-[4-(trifluoromethyl)phenyl]-5-chloro-2-hydroxybenzamide, reference compound]					> 1000	4.2	> 1000	> 1000	Inhibitory ratios (%) at 1000 nM, PGE2 (PGE2): −24%; Inhibitory ratios (%) at 1000 nM, IL-6 (IL-6): 36%
O=C(Nc1ccc(C(F)(F)F)cc1Cl)c1cc(Br)ccc1O [Reference Example 7, N-[2-chloro-4-(trifluoromethyl)phenyl]-5-bromo-2-hydroxybenzamide, reference compound]					> 1000	16	> 1000	> 1000	Inhibitory ratios (%) at 1000 nM, PGE2 (PGE2): 10%; Inhibitory ratios (%) at 1000 nM, IL-6 (IL-6): 27%
O=C(Nc1ccc(Cl)c(Cl)c1)c1cc(Br)ccc1O [drawing 563, reference compound]					208	-12	> 1000	205	
O=C(Nc1ccc(F)cc1F)c1cc([N+](=O)[O-])ccc1O [drawing 564, reference compound]					62	-4.5	> 1000	248	
O=C(Nc1ccc(F)cc1F)c1cc(I)ccc1O [reference compound]					730	-23	> 1000	85	
CC(=O)c1ccc(NC(=O)c2cc(I)ccc2O)cc1 [reference compound]					> 1000	-5.9	> 1000	82	Inhibitory ratios (%) at 1000 nM, PGE2 (PGE2): −3.9%
O=C(Nc1ccc(-c2ccccc2)cc1)c1cc(C(F)(F)F)ccc1O [reference compound]					292	-67	> 1000	140	
